Assay results from patent publication US7939091B2, “Biorational repellents obtained from terpenoids for use against arthropods” (Iowa State University Research Foundation, Inc., priority 1999, dated 2011).

Columns and labels:
[1] = test system: yellow fever mosquitoes, Aedes aegypti; assay: Static-air repellency chamber, spatial and contact repellency, adult female yellow fever mosquitoes; assay type: in vivo; settings: application rate 78.6 μg/cm^2
Procedure: Test Equipment. In this testing, a static air repellency chamber was used. The apparatus consisted of a 9×60-cm section of glass tubing with a 2-cm hole drilled at the midpoint along the length for central introduction of the insects. All of the testing was conducted in an environmental chamber at ambient temperatures.
Test Methods. The data for spatial repellency was collected at 15 minutes after the introduction of female yellow fever mosquitoes into a static air repellency chamber. Data for the contact repellency was collected after three hours. The concentrations used in the tests are 1% solution (1 ml of it on a 9-cm diameter filter paper). One (1) ml of a 1% (wt/vol) solution of repellent substance containing hexane as a carrier was pipetted onto a 9-cm diameter filter paper results in a concentration of 157 μg/cm^2. The solution contained the desired mass of compound to be tested added to the desired volume of hexane, e.g., for a 1% solution of catnip essential oil, […] was added to 100 ml of hexane.
One milliliter of the solution was applied to one half of a 9-cm diameter round filter paper with an area of 63.6 cm^2 and then allowed to dry before testing. […] Treated filter papers were placed inside the lids of 9-cm glass petri dishes, and placed over the ends of the glass tube. The position of the treated side, to the right or to the left, was selected by using a random-number table. Approximately fifteen unmated adult female mosquitoes were anaesthetized with CO2 and then introduced to the 9×60-cm glass cylinder through the centered 2-cm hole. Timing began 2 minutes after mosquito introduction, and mosquito distribution inside the static-air choice-test apparatus was observed over a 15-minute period for each treatment to determine spatial repellency. Basically the number of mosquitoes in the non-treated half were considered to be repelled and were counted. Percent repellency was considered to be: (Number of Individuals on Untreated Half−Number of Individuals on Treated Half)/15)×100. Contact repellency was defined in this assay as 100% avoidance of the treated filter paper-after three hours. The experimental design was a completely randomized design using six replications of each treatment.
All test methods were the same as described in Example 7, except spatial repellency over a longer period.
Test Methods. […] Also only three replications were used instead of six.

[2] = test system: antennectomized male German cockroaches; assay: Choice test arena behavioral assay of antennectomized male cockroaches; assay type: in vivo, Blattella germanica; settings: Annectomized male cockroaches
Procedure: Testing Procedure. Male cockroaches were antennectomized by using a razor blade to remove the antennae as close to the head as possible. The cockroaches were allowed to recover from the procedure for 24 hours before being exposed to the test compounds in the bioassay described in Example 1. Results.

[3] = test system: German cockroach (Blattella germanica); assay: Choice test arena repellency bioassay, adult male German cockroach, 300-second test; assay type: in vivo; settings: for Mean Treated / Mean Untreated: 300-second test; for % repellency: (untreated − treated/300)*100
Procedure: Test Procedure. Repellency bioassays were conducted to assess the repellent properties of compositions containing catnip steam distillate (nepetalactone), Z,E-nepetalactone, E,Z-nepetalactone and DEET against cockroaches. Certified acetone and certified hexane were also tested in order to evaluate solvent effects. (DEET was dissolved in acetone, because DEET is insoluble in hexane. The tested compounds were dissolved in hexane because hexane was the solvent used to extract these compounds from the distillate). One Whatman 125-mm round filter paper was cut in half. One side was treated with one (1) ml of the test compound and the other side was treated with one (1) ml of solvent. The papers were allowed to dry in a fume hood for approximately two (2) minutes before being placed in a 150-mm Petri dish arena. The relative position of the treated side (i.e., to the right or left) of the dish was randomized using a random number table. […] The hole was stopped using a small piece of tape to prevent the insect from escaping. One adult male German cockroach (Blattella germanica) was selected from the colony and dropped into the pre-formed hole in the Petri dish lid. […] Ten (10) replications were performed for each test compound. Results. Using mean values and their related Standard Error of the Mean values (SEM), repellency of the selected samples was determined as shown in Table 2. Significance due to concentration was determined using ANOVA. […] Comparisons between test compounds were made using a two-tailed paired t-test (“paired t-test”) which indicates “differences” as is known in the art and shown in Table 4 (as compared with a “one-tailed” test, which indicates “greater or less than”). Testing Procedure. The same procedure described in Example 1 was used.

[4] = test system: German cockroach, Blattella germanica; assay: Choice-test arena bioassay (contact irritancy), German cockroach, Example 6; assay type: in vivo; settings: 300-second period
Procedure: (§1) A choice-test arena was used to assess irritancy of test solutions to two common household insect pests, the German cockroach (Blattella germanica) and the house fly (Musca domestica). Catnip essential oil obtained by steam distillation of catnip obtained from the same source as described in the above examples, and the two major components of its essential oil, Z,E-nepetalactone and E,Z-nepetalactone (isolated from the essential oil by preparative TLC), were evaluated for behavioral effects of contact irritancy to the German cockroach. The TLC was performed as described in McElvain, S. M. et al., J. Am. Chem. Soc., 1941, 63, 1558-1563. Catnip essential oil and its major constituent Z,E-nepetalactone were tested against the house fly. N,N-diethyl-m-toluamide (DEET) (Aldrich, St. Louis, Mo.) served as a positive control for the choice-test arena assay and as a point of comparison for measuring insect behavioral effects that result from current commercial insect repellents. Test solutions ranging from 10% to 0.1% (vol/vol) active ingredient (a.i.) were made up in acetone and then delivered on to a filter paper for solvent evaporation. […] Choice-test are for German cockroaches and house flies were constructed from plastic Petri dishes. One-half of a 12.5-cm dia. filter paper was treated with 1 ml test solution, and the other was treated with 1 ml of only solvent (control). Both halves of the filter paper were placed in the choice-test arena. Position of the treated filter paper was randomized using a random-number table.
(§2) Individual German cockroaches or house flies were placed in each choice-test arena through a centered hole in the lid of the Petri dish and evaluated for a 300-second period. The amount of time the insect spent on the treated and untreated filter papers were recorded and used to calculate a percentage repellency value: Percentage Repellency=((Time on Untreated-Time on Treated)/300)×100
(§3) Ten replicates of each treatment solution were tested for both German cockroaches and house flies. Details of this assay design and some results have previously been described.

[5] = test system: house fly, Musca domestica; assay: Choice-test arena bioassay (contact irritancy), house fly; assay type: in vivo; settings: 300-second period
Procedure: as §1, §2, §3

[6] = 0.1% test solution vs solvent-treated half, male
[7] = 0.5% test solution vs solvent-treated half, male
[8] = dose 16 μg/cm^2, male B. germanica, in 300 seconds
[9] = dose 80 μg/cm^2, male B. germanica, in 300 seconds
[10] = 1% test solution vs solvent-treated half, male
[11] = 5% test solution vs solvent-treated half, male

## CC(C)=CCCC(C)CC=O (stereo not drawn) [Citronellal, citronellal, reference compound]
[1]; 60 min
  Average Percentage Repellency Over Time: 10%
[1]; 120 min
  Average Percentage Repellency Over Time: 19%
[1]; 360 min
  Average Percentage Repellency Over Time: 1%
[1]; Initial
  Average Percentage Repellency Over Time: 79%

## CC1=COC(=O)C2[C@@H]1CC[C@@H]2C (stereo partly drawn) [E,Z-Nepetalactone, trans-cis nepetalactone]
[2]; 80 μg/cm^2
  Mean seconds on treated side ± SEM: 153 ± 15.2 s
  Mean seconds on untreated side: 149 ± 15.3 s
[3]; [6]
  Mean Treated: 76.7 s
  Mean Untreated: 216 s
[3]; 0.5%
  times less time on the treated side as compared with the untreated side: ~8 times
[3]; [7]
  Mean Treated: 31.7 s
  Mean Untreated: 270 s
[3]; Non-antennectomized male cockroaches, 80 μg/cm^2
  Mean seconds on treated side ± SEM: 31.7 ± 5.2 s
[3]; dose 16 μg/cm^2
  % repellency: 46%
[3]; [8]
  Mean seconds on treated side ± SEM: 76.7 ± 13.7 b seconds
[3]; dose 80 μg/cm^2
  % repellency: 79%
[3]; [9]
  Mean seconds on treated side ± SEM: 31.7 ± 5.2 c seconds
[4]; application rate 16 μg/cm^2
  Percentage Repellency ± SEM: 46.4 ± 11.0b %
[4]; application rate 80 μg/cm^2
  Percentage Repellency ± SEM: 79.4 ± 3.5c %

## CCCCCCOC(=O)CCCCC [Hexyl hexanoate]
[3]; amount used 1% solution
  Mean Treated: 142 s
  Mean Untreated: 158 s
  % repellency: 5.2%

## c1ccc2ccccc2c1 [Naphthalene, reference compound]
[3]; amount used 1% solution
  Mean Treated: 117 s
  Mean Untreated: 184 s
  % repellency: 22%

## CC(C)=CCc1c2c(c3occ(-c4ccc(O)cc4)c(=O)c3c1O)C=CC(C)(C)O2 [Osajin, osajin]
[3]; amount used 0.5% solution
  Mean Treated: 117 s
  Mean Untreated: 184 s
  % repellency: 22%
[3]; amount used 1% solution
  Mean Treated: 103 s
  Mean Untreated: 197 s
  % repellency: 31%

## CC(C)=CCc1c2c(c3occ(-c4ccc(O)c(O)c4)c(=O)c3c1O)C=CC(C)(C)O2 [Pomiferin, pomiferin]
[3]; amount used 1% solution
  Mean Treated: 138 s
  Mean Untreated: 163 s
  % repellency: 8.3%

## CC1=COC(=O)[C@H]2[C@@H]1CC[C@@H]2C [Z,E-Nepetalactone, cis-trans nepetalactone]
[2]; 160 μg/cm^2
  Mean seconds on treated side ± SEM: 121 ± 10.6 s
  Mean seconds on untreated side: 180 ± 10.5 s
[3]; [6]
  Mean Treated: 127 s
  Mean Untreated: 176 s
[3]; [7]
  Mean Treated: 128 s
  Mean Untreated: 174 s
[3]; [10]
  Mean Treated: 65.4 s
  Mean Untreated: 236 s
[3]; 5%
  times less time on the treated side as compared with the untreated side: ~5 times
[3]; [11]
  Mean Treated: 47.3 s
  Mean Untreated: 252 s
[3]; Non-antennectomized male cockroaches, 160 μg/cm^2
  Mean seconds on treated side ± SEM: 65.4 ± 11.8 s
[3]; dose 16 μg/cm^2
  % repellency: 16%
[3]; [8]
  Mean seconds on treated side ± SEM: 127 ± 11.2 a seconds
[3]; dose 80 μg/cm^2
  % repellency: 15%
[3]; [9]
  Mean seconds on treated side ± SEM: 128 ± 10.4 a seconds
[3]; dose 160 μg/cm^2
  % repellency: 57%
[3]; dose 160 μg/cm^2, male B. germanica, in 300 seconds
  Mean seconds on treated side ± SEM: 65.4 ± 11.8 b seconds
[3]; dose 800 μg/cm^2
  % repellency: 68%
[3]; dose 800 μg/cm^2, male B. germanica, in 300 seconds
  Mean seconds on treated side ± SEM: 47.3 ± 8.7 b seconds
[5]; application rate 80 μg/cm^2
  Percentage Repellency: 87.3%
[5]; application rate 160 μg/cm^2
  Percentage Repellency: 69.3%
[5]; application rate 800 μg/cm^2
  Percentage Repellency: 96.0%
[4]; application rate 16 μg/cm^2
  Percentage Repellency ± SEM: 16.1 ± 7.4a %
[4]; application rate 80 μg/cm^2
  Percentage Repellency ± SEM: 15.4 ± 6.9a %
[4]; application rate 160 μg/cm^2
  Percentage Repellency ± SEM: 56.8 ± 7.8b %
[4]; application rate 800 μg/cm^2
  Percentage Repellency ± SEM: 68.2 ± 5.7b %

## CC1=CC[C@@]23[C@@H]([C@@H]12)[C@H](C(C)C)CC[C@H]3C [α-Cubebene, alpha-cubebene]
[3]; amount used 0.1% solution
  Mean Treated: 118 s
  Mean Untreated: 182 s
  % repellency: 21%
[3]; amount used 0.5% solution
  Mean Treated: 99.4 s
  Mean Untreated: 211 s
  % repellency: 36%
